Reference: patent US20220380829A1, “Method of Diagonosizing Pathogens and their Antimicrobial Susceptibility” (HANGZHOU DIAN MEDICAL LABORATORY CO., LTD., priority 2019, published 2022)

Tests used:
Type in all cases: cell-based
[1] = tested on: Klebsiella pneumoniae; experiment: VITEK2 Compact AST (AST-GN13/GN334 cards), gold standard culture-based AST
Text: Step 1. Sample collection and drug susceptibility verification: 240 clinical Klebsiella pneumoniae isolates were collected from 23 hospitals across china in a period between January 2018 and March 2019.

[2] = tested on: Staphylococcus aureus; experiment: VITEK2 Compact AST (AST-P639 card), gold standard culture-based AST; details: for Resistance profiles by VITEK2: R: number of resistant among 22 blinds; for Resistance profiles by VITEK2: S: number of susceptible among 22 blinds
Description: Step 1. Sample collection and drug susceptibility verification: 160 clinical Staphylococcus aureus isolates were collected from 20 hospitals across china in a period between June 2018 and June 2019. All isolates were tested for drug susceptibility using bioMérieux Vitek2 Compact System and AST-P639 card, and specifically, and the results were used as the gold standard (culture-based AST).

[3] = tested on: Enterococcus faecalis; experiment: VITEK2 Compact AST (AST-P639 cards), gold standard culture-based AST
[4] = tested on: Streptococcus pneumoniae; experiment: VITEK2 Compact AST (AST-GP68 cards) with penicillin disc diffusion, gold standard culture-based AST
Description: (§1) Step 1. Drug susceptibility verification: The Streptococcus pneumoniae isolates were tested for drug susceptibility using bioMérieux Vitek2 Compact System and AST-GP68 cards, and specifically, the susceptibility of penicillin was double checked by disc diffusion method (OXOID, CT0043B), and the combined results were used as the gold standard (culture-based AST).
as §1, with “Sample collection and drug” for “Drug”, “48 clinical” for “The”, “pneumoniae isolates were collected from 18 hospitals across china in a period between May 2017 and October 2019. All” for “pneumoniae”, “card,” for “cards,”

[5] = Resistance profile classification A
[6] = Resistance profile classification B
[7] = Resistance profile classification C
[8] = Resistance profile classification D
[9] = Resistance profile classification G
[10] = Resistance profile classification H
[11] = Resistance profile classification I
[12] = Resistance profile classification J
[13] = Resistance profile classification S

Gentamicin
Resistance profiles by VITEK2: R ([1]; number of resistant among 24 blinds): 12 | Resistance profiles by VITEK2: S ([1]; number of susceptible among 24 blinds): 12 | Resistance profiles by VITEK2: R [2]: 7 | Resistance profiles by VITEK2: S [2]: 15

Teicoplanin
Resistance profiles by VITEK2: R [2]: 0 | Resistance profiles by VITEK2: S [2]: 22

penicillin
Susceptibility of Emterococcus faecalis to 11 antibacterial drugs [3, 5]: R | Susceptibility of Emterococcus faecalis to 11 antibacterial drugs [3, 6]: R | Susceptibility of Emterococcus faecalis to 11 antibacterial drugs [3, 7]: R | Susceptibility of Emterococcus faecalis to 11 antibacterial drugs [3, 8]: R | Susceptibility of Emterococcus faecalis to 11 antibacterial drugs ([3]; Resistance profile classification F (first line so labelled, r12)): R | Susceptibility of Emterococcus faecalis to 11 antibacterial drugs ([3]; Resistance profile classification F (second line so labelled, r13)): R | Susceptibility of Emterococcus faecalis to 11 antibacterial drugs [3, 9]: S | Susceptibility of Emterococcus faecalis to 11 antibacterial drugs [3, 10]: S | Susceptibility of Emterococcus faecalis to 11 antibacterial drugs [3, 11]: S | Susceptibility of Emterococcus faecalis to 11 antibacterial drugs [3, 12]: S | Susceptibility of Emterococcus faecalis to 11 antibacterial drugs ([3]; Resistance profile classification K): S | Susceptibility of Emterococcus faecalis to 11 antibacterial drugs ([3]; Resistance profile classification L): S | Susceptibility of Emterococcus faecalis to 11 antibacterial drugs ([3]; Resistance profile classification M): S | Susceptibility of Emterococcus faecalis to 11 antibacterial drugs [3, 13]: S | Blind 1 by AST ([4]; Blind 1): S | Susceptibility of Streptococcus pneumoniae to 14 antibacterial drugs [4, 5]: R | Susceptibility of Streptococcus pneumoniae to 14 antibacterial drugs [4, 6]: R | Susceptibility of Streptococcus pneumoniae to 14 antibacterial drugs [4, 7]: R | Susceptibility of Streptococcus pneumoniae to 14 antibacterial drugs [4, 8]: R | Susceptibility of Streptococcus pneumoniae to 14 antibacterial drugs ([4]; Resistance profile classification E): R | Susceptibility of Streptococcus pneumoniae to 14 antibacterial drugs ([4]; Resistance profile classification F): R | Susceptibility of Streptococcus pneumoniae to 14 antibacterial drugs [4, 9]: S | Susceptibility of Streptococcus pneumoniae to 14 antibacterial drugs [4, 10]: S | Susceptibility of Streptococcus pneumoniae to 14 antibacterial drugs [4, 11]: S | Susceptibility of Streptococcus pneumoniae to 14 antibacterial drugs [4, 12]: S | Susceptibility of Streptococcus pneumoniae to 14 antibacterial drugs [4, 13]: S | blind 2 by AST ([4]; blind 2): R | Resistance profiles by VITEK2: R [2]: 20 | Resistance profiles by VITEK2: S [2]: 2
